Data on 8 molecules can be found in patent US4888345A, “4,8-disubstituted-1,2-dihydro and 1,2,3,4-tetrahydroimidazo-[1,5-a] pyrimidines” (American Cyanamid Company, priority 1988, dated 1989).

The test system of assay [1] is Spontaneously Hypertensive Rats. Nature of the assay: Hypotensive activity: reduction of mean arterial blood pressure in spontaneously hypertensive rats (method of Chan and Poorvin). As to conditions: gavage, two doses of 100 mg/kg or less 24 hours apart; measured 28 hours after initial dose; average MABP of the rats used 160±1.5 mm Hg. The assay is classed as in vivo. The procedure:
Certain of the novel compounds of the present invention are active hypotensive agents at nontoxic doses when administered to mammals. These compounds were tested for hypotensive activity by the method of P. S. Chan and D. Poorvin, Clinical and Experimental Hypertension, 1(6), 817-830 (1979). Male, 16 week old, spontaneously hypertensive rats of the Okamoto strain having an average mean arterial blood pressure of 160±1.5 mm of mercury are used in the test. One to 3 rats are used per test compound. A rat is dosed by gavage with a test compound, suspended in 2% pre-boiled starch at a concentration of 50 mg/ml, at a dose of 100 mg/kg of body weight or less, with 0.9% sodium chloride loading at a dose of 25 ml/kg of body weight. A second identical dose of the test compound, without sodium chloride loading is given 24 hours later. At 28 hours after the initial dose the mean arterial blood pressure is measured by the method of Chan and Poorvin vide supra. The procedure is repeated in a second and third rat when necessary.

Assay [2] concerns Brain-Specific Receptors of Rats (3H-benzodiazepine binding). In words: Inhibition of the binding of 3H-benzodiazepine to brain-specific receptors of rats (antianxiety). As to conditions: rat cortex P2-synaptosomal fraction; 3H-diazepam (1.5 nM) or 3H-flunitrazepam (1.0 nM); 30 minutes in ice, pH 7.4; test concentration not given. Set-up: species or system rat (Wistar strain). The text has this: The antianxiety properties of certain of the novel compounds of the present invention have been establish in a test which measures the ability of a test compound to inhibit the binding of tritiated benzodiazepines to brain-specific receptors of mammals. A modification of the method described by R. F. Squires, et al., Nature, 266, No. 21, pg 732 (April 1977) and H. Mohler, et al., Science, 198:849 (1977) was employed.
Male albino rats (Wistar strain, weighing 150 g 200 g each) were used. The test compounds were solubilized in dimethylformamide, acetic acid, ethanol or hydrochloric acid.
Whole cortex of rats was homogenized gently in 20 volumes of ice-cold 0.32 M sucrose, centrifuged twice at 1000 g for 10 minutes and then recentrifuged at 30,000 g for 20 minutes to produce a crude P2 -synaptosomal fraction. […]
The binding assay consisted of 300 μl of the P2 -fraction suspension (0.2-0.4 mg protein), 100 μl of test drug and 100 μl of ^3 H-diazepam (1.5 nM, final concentration) or ^3 H-flunitrazepam (1.0 nM, final concentration) which was added to 1.5 ml of 50 mM Tris.HCl (pH 7.4). […] After drying at 50°-60° C. for 30 minutes, 10 ml of diluent was added and the radioactivity determined in a scintillation counter.
Inhibition of binding was calculated by the difference between total binding and binding in the presence of test compound, divided by the total binding, ×100. […]

On to `NC(=O)c1ncn2c1NCC=C2c1cccc(C(F)(F)F)c1` [Example 26, 1,2-Dihydro-4-[3-(trifluoromethyl)phenyl]imidazo-[1,5-a]pyrimidine-8-carboxamide], for which, in assay [1], the “MABP/mm Hg (mean arterial blood pressure after dosing)” value (“MABP/mm Hg” for short) is on record as 111 mm Hg.

Take `NC(=O)c1ncn2c1NCC=C2c1cccc(Cl)c1` [Example 27, 4-(3-Chlorophenyl)-1,2-dihydroimidazo[1,5-a]-pyrimidine-8-carboxamide]: the “MABP/mm Hg” value in assay [1] is listed as 132 mm Hg.

Turning to `NC(=O)c1ncn2c1NCC=C2c1cc(Cl)ccc1Cl` [Example 28, 4-(2,5-Dichlorophenyl)-1,2-dihydroimidazo[1,5-a]-pyrimidine-8-carboxamide], the “MABP/mm Hg” value in assay [1] stood at 106 mm Hg.

As for `NC(=O)c1ncn2c1NCC=C2c1ccccc1` [Example 29, 1,2-Dihydro-4-phenylimidazo[1,5-a]-pyrimidine-8-carboxamide], the “MABP/mm Hg” value in assay [1] was found to be 121 mm Hg.

In the case of `COc1cccc(C2=CCNc3c(C(N)=O)ncn32)c1` [Example 30, 1,2-Dihydro-4-(3-methoxyphenyl)-imidazo[1,5-a]pyrimidine-8-carboxamide], the “% Inhibition of 3H-benzodiazepine binding” value in assay [2] came to 27%.

As for `NC(=O)c1ncn2c1NCC=C2c1cccc([N+](=O)[O-])c1` [Example 35, 1,2-Dihydro-4-(3-nitrophenyl)imidazo-[1,5-a]pyrimidine-8-carboxamide], the “MABP/mm Hg” value in assay [1] was determined as 139 mm Hg.

With `NC(=O)c1ncn2c1NCC=C2c1cccnc1` [Example 37, 1,2-Dihydro-4-(3-pyridinyl)imidazo-[1,5-a]pyrimidine-8-carboxamide], the “MABP/mm Hg” value in assay [1] is 138 mm Hg.

With `NC(=O)c1ncn2c1NCC=C2c1ccc(N2CCOCC2)cc1` [Example 38, 1,2-Dihydro-4-[4-(4-morpholinyl)-phenyl]imidazo[1,5-a]pyrimidine-8-carboxamide], the “% Inhibition of 3H-benzodiazepine binding” value in assay [2] was determined as 29%.
